Measured values published in ChEMBL document CHEMBL1126778, “Adenosine A1 antagonists. 3. Structure-activity relationships on amelioration against scopolamine- or N6-((R)-phenylisopropyl)adenosine-induced cognitive disturbance” (J Med Chem, 1993).

Experiments:
Mus musculus [1] = experiment: Acquisition time in (R)-PIA) induced avoidance test (performed in mice) for antagonistic activity after p.o. administration of 0.31 mg/kg; format: functional; conditions: route oral
Mus musculus [2] = experiment: Acquisition time in (R)-PIA) induced avoidance test (performed in mice) for antagonistic activity after p.o. administration of 1.25 mg/kg; format: functional; conditions: route oral
Mus musculus [3] = experiment: Acquisition time in (R)-PIA) induced avoidance test (performed in mice) for antagonistic activity after peroral administration of 20 mg/kg; format: functional; conditions: route oral
Mus musculus [4] = experiment: Retention time in (R)-PIA) induced avoidance test (performed in mice) for antagonistic activity after p.o. administration of 1.25 mg/kg; format: functional, organism-based; design: dose 1.25 mg/kg
Mus musculus [5] = experiment: Retention time in (R)-PIA) induced avoidance test (performed in mice) for antagonistic activity after peroral administration of 20 mg/kg; format: functional, organism-based; design: dose 20 mg/kg
Mus musculus [6] = experiment: Retention time in (R)-PIA) induced avoidance test (performed in mice) for antagonistic activity after peroral administration of 5 mg/kg; format: functional, organism-based; design: dose 5 mg/kg
Mus musculus [7] = experiment: Retention time in (R)-PIA) induced avoidance test (performed in mice) for antagonistic activity after peroral administration of 0.31 mg/kg; format: functional, organism-based; design: dose 0.31 mg/kg
Rattus norvegicus [8] = experiment: Acquisition time in Scopolamine induced avoidance test (performed in rat) for antagonistic activity after peroral administration of 1.25 mg/kg; format: functional; conditions: route oral
Rattus norvegicus [9] = experiment: Acquisition time in Scopolamine induced avoidance test (performed in rat) for antagonistic activity after peroral administration of 20 mg/kg; format: functional; conditions: route oral
Rattus norvegicus [10] = experiment: Acquisition time in Scopolamine induced avoidance test (performed in rat) for antagonistic activity after p.o. administration of 0.08 mg/kg; format: functional; conditions: route oral
Rattus norvegicus [11] = experiment: Acquisition time in Scopolamine induced avoidance test (performed in rat) for antagonistic activity after p.o. administration of 0.31 mg/kg; format: functional; conditions: route oral
Rattus norvegicus [12] = experiment: Acquisition time in Scopolamine induced avoidance test (performed in rat) for antagonistic activity after p.o. administration of 5 mg/kg; format: functional; conditions: route oral
Rattus norvegicus [13] = experiment: Retention time in Scopolamine induced avoidance test (performed in […]) for antagonistic activity after peroral administration of 5 mg/kg; format: functional, organism-based; design: dose 5 mg/kg
Rattus norvegicus [14] = experiment: Retention time in Scopolamine induced avoidance test (performed in rat) for antagonistic activity after p.o. administration of 0.08 mg/kg; format: functional, organism-based; design: dose 0.08 mg/kg
Rattus norvegicus [15] = experiment: Retention time in Scopolamine induced avoidance test (performed in rat) for antagonistic activity after p.o. administration of 0.31 mg/kg; format: functional, organism-based; design: dose 0.31 mg/kg
Rattus norvegicus [16] = experiment: Retention time in Scopolamine induced avoidance test (performed in rat) for antagonistic activity after peroral administration of 1.25 mg/kg; format: functional, organism-based; design: dose 1.25 mg/kg
Rattus norvegicus [17] = experiment: Retention time in Scopolamine induced avoidance test (performed in rat) for antagonistic activity after peroral administration of 20 mg/kg (n=9); format: functional, organism-based; design: dose 20 mg/kg
Mus musculus [18] = experiment: Acquisition time in (R)-PIA) induced avoidance test (performed in mice) for antagonistic activity after peroral administration of 5 mg/kg; format: functional; conditions: route oral
Mus musculus [19] = experiment: Retention time in (R)-PIA) induced avoidance test (performed in mice) for antagonistic activity after peroral administration of 0.08 mg/kg; format: functional, organism-based; design: dose 0.08 mg/kg
Mus musculus [20] = experiment: Retention time in (R)-PIA) induced avoidance test (performed in mice) for antagonistic activity after peroral administration of 1.25 mg/kg; format: functional, organism-based; design: dose 1.25 mg/kg
Rattus norvegicus [21] = experiment: Retention time in Scopolamine induced avoidance test (performed in rat) for antagonistic activity after peroral administration of 0.08 mg/kg; format: functional, organism-based; design: dose 0.08 mg/kg
Rattus norvegicus [22] = experiment: Retention time in Scopolamine induced avoidance test (performed in rat) for antagonistic activity after peroral administration of 20 mg/kg; format: functional, organism-based; design: dose 20 mg/kg
Mus musculus [23] = experiment: Acquisition time in (R)-PIA) induced avoidance test (performed in mice) for antagonistic activity after peroral administration of 0.02 mg/kg; format: functional; conditions: route oral
Mus musculus [24] = experiment: Acquisition time in (R)-PIA) induced avoidance test (performed in mice) for antagonistic activity after peroral administration of 0.08 mg/kg; format: functional; conditions: route oral
Mus musculus [25] = experiment: Acquisition time in (R)-PIA) induced avoidance test (performed in mice) for antagonistic activity after peroral administration of 1.25 mg/kg; format: functional; conditions: route oral
Mus musculus [26] = experiment: Retention time in (R)-PIA) induced avoidance test (performed in mice) for antagonistic activity after peroral administration of 0.02 mg/kg; format: functional, organism-based; design: dose 0.02 mg/kg
Mus musculus [27] = experiment: Tested for locomotor activity after oral administration of 10 mg/kg for 120 min; format: functional
Mus musculus [28] = experiment: Tested for locomotor activity after oral administration of […] for 120 min; format: functional
Mus musculus [29] = experiment: Tested for locomotor activity after oral administration of 5 mg/kg for 120 min; format: functional
Rattus norvegicus [30] = experiment: Acquisition time in Scopolamine induced avoidance test (performed in rat) for antagonistic activity after peroral administration of 5 mg/kg; format: functional; conditions: route oral
Rattus norvegicus [31] = experiment: Acquisition time in Scopolamine induced avoidance test (performed in rat) for antagonistic activity after peroral administration of 0.02 mg/kg; format: functional; conditions: route oral
Rattus norvegicus [32] = experiment: Acquisition time in Scopolamine induced avoidance test (performed in rat) for antagonistic activity after peroral administration of 0.08 mg/kg; format: functional; conditions: route oral
Rattus norvegicus [33] = experiment: Retention time in Scopolamine induced avoidance test (performed in rat) for antagonistic activity after peroral administration of 0.02 mg/kg; format: functional, organism-based; design: dose 0.02 mg/kg
Rattus norvegicus [34] = experiment: Retention time in Scopolamine induced avoidance test (performed in rat) for antagonistic activity after peroral administration of 5 mg/kg (n=15); format: functional, organism-based; design: dose 5 mg/kg
Mus musculus [35] = experiment: Acquisition time in (R)-PIA) induced avoidance test (performed in mice) for antagonistic activity after peroral administration of 0.08 mg/kg (n=15); format: functional; conditions: route oral
Mus musculus [36] = experiment: Acquisition time in (R)-PIA) induced avoidance test (performed in mice) for antagonistic activity after peroral administration of 0.31 mg/kg (n=15); format: functional; conditions: route oral
Mus musculus [37] = experiment: Acquisition time in (R)-PIA) induced avoidance test (performed in mice) for antagonistic activity after peroral administration of 1.25 mg/kg (n=15); format: functional; conditions: route oral
Mus musculus [38] = experiment: Acquisition time in (R)-PIA) induced avoidance test (performed in mice) for antagonistic activity after peroral administration of 5 mg/kg (n=15); format: functional; conditions: route oral
Mus musculus [39] = experiment: Retention time in (R)-PIA) induced avoidance test (performed in mice) for antagonistic activity after peroral administration of 1.25 mg/kg (n=15) (P<0.005); format: functional, organism-based; design: dose 1.25 mg/kg
Mus musculus [40] = experiment: Retention time in (R)-PIA) induced avoidance test (performed in mice) for antagonistic activity after peroral administration of 20 mg/kg (n=15) (P<0.05); format: functional, organism-based; design: dose 20 mg/kg
Mus musculus [41] = experiment: Retention time in (R)-PIA) induced avoidance test (performed in mice) for antagonistic activity after peroral administration of 0.08 mg/kg (n=15) (P<0.005); format: functional, organism-based; design: dose 0.08 mg/kg
Mus musculus [42] = experiment: Retention time in (R)-PIA) induced avoidance test (performed in mice) for antagonistic activity after peroral administration of 0.31 mg/kg (n=15) (P<0.01); format: functional, organism-based; design: dose 0.31 mg/kg
Rattus norvegicus [43] = experiment: Acquisition time in Scopolamine induced avoidance test (performed in rat) for antagonistic activity after peroral administration of 1.25 mg/kg (n=18); format: functional; conditions: route oral
Rattus norvegicus [44] = experiment: Acquisition time in Scopolamine induced avoidance test (performed in rat) for antagonistic activity after peroral administration of 0.02 mg/kg (n=18); format: functional; conditions: route oral
Rattus norvegicus [45] = experiment: Acquisition time in Scopolamine induced avoidance test (performed in rat) for antagonistic activity after peroral administration of 0.08 mg/kg (n=18); format: functional; conditions: route oral
Rattus norvegicus [46] = experiment: Acquisition time in Scopolamine induced avoidance test (performed in rat) for antagonistic activity after peroral administration of 0.31 mg/kg (n=18); format: functional; conditions: route oral
Rattus norvegicus [47] = experiment: Acquisition time in Scopolamine induced avoidance test (performed in rat) for antagonistic activity after peroral administration of 5 mg/kg (n=18); format: functional; conditions: route oral
Rattus norvegicus [48] = experiment: Retention time in Scopolamine induced avoidance test (performed in […]) for antagonistic activity after peroral administration of 1.25 mg/kg (n=18) (P<0.05); format: functional, organism-based; design: dose 1.25 mg/kg
Rattus norvegicus [49] = experiment: Retention time in Scopolamine induced avoidance test (performed in rat) for antagonistic activity after peroral administration of 0.02 mg/kg (n=18) (P<0.05); format: functional, organism-based; design: dose 0.02 mg/kg
Rattus norvegicus [50] = experiment: Retention time in Scopolamine induced avoidance test (performed in rat) for antagonistic activity after peroral administration of 0.31 mg/kg (n=18) (P<0.005); format: functional, organism-based; design: dose 0.31 mg/kg
Rattus norvegicus [51] = experiment: Retention time in Scopolamine induced avoidance test (performed in rat) for antagonistic activity after peroral administration of 5 mg/kg (n=18) (P<0.05); format: functional, organism-based; design: dose 5 mg/kg
Rattus norvegicus [52] = experiment: Retention time in Scopolamine induced avoidance test (performed in rat) for antagonistic activity after peroral administration of 0.08 mg/kg (n=18) (P<0.05); format: functional, organism-based; design: dose 0.08 mg/kg

CCCn1c(=O)c2c(nc(/C=C/c3ccc(OC)c(OC)c3)n2C)n(CCC)c1=O
Acquisition time (Mus musculus [1]): 22.7 s | Acquisition time (Mus musculus [2]): 25.3 s | Acquisition time (Mus musculus [3]): 31.2 s | Retention time (Mus musculus [4]): 65.3 s | Retention time (Mus musculus [5]): 92.4 s | Retention time (Mus musculus [6]): 37.5 s | Retention time (Mus musculus [7]): 42.4 s | Acquisition time (Rattus norvegicus [8]): 10.1 s | Acquisition time (Rattus norvegicus [9]): 22.2 s | Acquisition time (Rattus norvegicus [10]): 14.9 s | Acquisition time (Rattus norvegicus [11]): 11.8 s | Acquisition time (Rattus norvegicus [12]): 24.4 s | Retention time (Rattus norvegicus [13]): 4.9 s | Retention time (Rattus norvegicus [14]): 31.1 s | Retention time (Rattus norvegicus [15]): 12.9 s | Retention time (Rattus norvegicus [16]): 20.3 s | Retention time (Rattus norvegicus [17]): 15.6 s | Acquisition time (Mus musculus [18]): 19.8 s

Cn1c(=O)c2[nH]cnc2n(C)c1=O
Retention time (Mus musculus [6]): 104 s | Retention time (Mus musculus [19]): 85.4 s | Retention time (Mus musculus [7]): 113 s | Retention time (Mus musculus [20]): 166 s | Retention time (Rattus norvegicus [21]): 45.8 s | Retention time (Rattus norvegicus [15]): 31.2 s | Retention time (Rattus norvegicus [16]): 10.9 s | Retention time (Rattus norvegicus [22]): 14.6 s

CCCn1c(=O)c2nc(C(C3CC3)C3CC3)[nH]c2n(CCC)c1=O
Acquisition time (Mus musculus [23]): 32.9 s | Acquisition time (Mus musculus [24]): 46.5 s | Acquisition time (Mus musculus [1]): 21.7 s | Acquisition time (Mus musculus [25]): 22.7 s | Retention time (Mus musculus [6]): 248 s | Retention time (Mus musculus [19]): 83.9 s | Retention time (Mus musculus [7]): 140 s | Retention time (Mus musculus [20]): 262 s | Retention time (Mus musculus [26]): 51.3 s | Locomotor activity (Mus musculus [27]): 5371 Counts | Locomotor activity (Mus musculus [28]): 4365 Counts | Locomotor activity (Mus musculus [29]): 5631 Counts | Acquisition time (Rattus norvegicus [8]): 20.4 s | Acquisition time (Rattus norvegicus [30]): 14.7 s | Acquisition time (Rattus norvegicus [31]): 29.9 s | Acquisition time (Rattus norvegicus [32]): 19.3 s | Acquisition time (Rattus norvegicus [11]): 15.6 s | Retention time (Rattus norvegicus [33]): 48.8 s | Retention time (Rattus norvegicus [14]): 54.1 s | Retention time (Rattus norvegicus [15]): 218 s | Retention time (Rattus norvegicus [34]): 120 s | Acquisition time (Mus musculus [18]): 28.1 s

CCCn1c(=O)c2nc(C3CCC(=O)C3)[nH]c2n(CCC)c1=O (stereo not drawn)
Acquisition time (Mus musculus [35]): 20.8 s | Acquisition time (Mus musculus [36]): 22 s | Acquisition time (Mus musculus [37]): 15.1 s | Acquisition time (Mus musculus [38]): 15.1 s | Retention time (Mus musculus [39]): 339 s | Retention time (Mus musculus [40]): 319 s | Retention time (Mus musculus [41]): 322 s | Retention time (Mus musculus [42]): 234 s | Locomotor activity (Mus musculus [27]): 8204 Counts | Locomotor activity (Mus musculus [28]): 6134 Counts | Acquisition time (Rattus norvegicus [43]): 11.4 s | Acquisition time (Rattus norvegicus [44]): 16.4 s | Acquisition time (Rattus norvegicus [45]): 12.8 s | Acquisition time (Rattus norvegicus [46]): 13.2 s | Acquisition time (Rattus norvegicus [47]): 9.8 s | Retention time (Rattus norvegicus [48]): 85.9 s | Retention time (Rattus norvegicus [49]): 169 s | Retention time (Rattus norvegicus [50]): 163 s | Retention time (Rattus norvegicus [51]): 75.9 s | Retention time (Rattus norvegicus [52]): 126 s
